# In patent US20150299218A1, “Heterocyclic Compounds As Inhibitors Of The Sodium Iodide Symporter” (COMMISSARIAT A L'ENERGIE ATOMIQUE ET AUX ENERGIES …, priority 2012, published 2015):
# Target: T1, sodium iodide symporter (NIS) (Rattus norvegicus, UniProt Q63008)
# T1 construct: endogenous in cells; host or cells: FRTL5 (rat thyroid-derived cells)
# T1 sequence (Q63008 1-618): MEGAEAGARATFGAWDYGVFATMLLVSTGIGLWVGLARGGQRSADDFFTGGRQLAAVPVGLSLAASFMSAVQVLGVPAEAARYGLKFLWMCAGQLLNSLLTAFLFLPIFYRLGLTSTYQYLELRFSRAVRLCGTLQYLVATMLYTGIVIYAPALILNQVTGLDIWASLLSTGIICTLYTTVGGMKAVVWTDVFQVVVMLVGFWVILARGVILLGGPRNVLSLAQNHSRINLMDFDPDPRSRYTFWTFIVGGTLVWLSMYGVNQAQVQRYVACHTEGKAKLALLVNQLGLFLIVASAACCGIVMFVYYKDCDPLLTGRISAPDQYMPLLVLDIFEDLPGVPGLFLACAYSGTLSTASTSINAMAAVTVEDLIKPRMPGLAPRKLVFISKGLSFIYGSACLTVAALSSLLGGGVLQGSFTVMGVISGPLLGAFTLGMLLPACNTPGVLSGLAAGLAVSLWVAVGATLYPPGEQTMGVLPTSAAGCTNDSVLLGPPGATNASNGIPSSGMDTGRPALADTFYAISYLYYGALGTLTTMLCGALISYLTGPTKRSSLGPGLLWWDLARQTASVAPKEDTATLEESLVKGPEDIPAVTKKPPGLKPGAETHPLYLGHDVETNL
# Assay: radioiodide uptake assay in FRTL5 cells (24-well plate)
# Format: cell-based
# Settings: 60 min, NaI 10 μM, averaged from two to four independent experiments, read-out: IC50 against iodide uptake in FRTL5 cells
# Protocol: In the framework of the invention, the NIS inhibitor is evaluated as follow: rat thyroid-derived cells (FRTL5 cells expressing NIS) are incubated during 1 h with iode and 125-I as a tracer, and in the presence of various concentration of compound. For each tested concentration of compound, the amount of iodide inside the cells is quantified by radioactive counting. The half-maximum inhibitory concentration (IC50) is evaluated for each compound by regression analysis (to the Hill equation) from dose-response data. A detailed protocol is provided in the experimental section, and also in N. Lecat-Guillet et al., ChemMedChem, 2008.
# The synthesized compounds were evaluated for their ability to inhibit iodide entrapment in FRTL5 cells using a rodiodide uptake assay. The IC50 values were measured in at least two independent experiments.
# The biological activity of each compound was determined in FRTL5 cells, using a 24-well plate format radioiodide uptake assay. Each experiment was run in quadruplicate and at least twice independently. Compound potency was expressed as IC50, the concentration of compound necessary to achieve 50% inhibition of iodide uptake. NaClO4 and the Compound 2 were tested as assay controls.
# FRTL5 cells were cultured in Coon's modified F12 medium supplemented with 5% heat-inactivated fetal bovine serum (Invitrogen), 2 mM L-glutamine, 100 U/mL penicillin, 0.1 mg/mL streptomycin, 10 μg/mL insulin, 10 nM hydrocortisone, 10 ng/mL Gly-His-Lys acetate, 1 mU/mL TSH, 5 μg/mL transferrin at 37° C. and 5% CO2. For iodide uptake assays, 1.25 mL of FRTL5 cells with density of 250,000 cells/mL were dispensed in each well of clear flat-bottomed 24-well polystyrene microplates (BD Falcon 3047), and further cultured until confluence reached 70-90% (3-4 days).
# Prepare ˜1.5 mL/plate of an intermediate “10-fold” radioiodide uptake buffer solution: NaI (100 μM) and [125-I]-NaI (20 μCi/mL) in uptake buffer (HBSS/Hepes).
# For each concentration of compound tested, prepare ˜2.5 mL of compound solutions in uptake buffer (HBSS/Hepes 10 mM) at 1.12 fold the final concentration, so that 450 μL of this solution plus 50 μL of radioiodide uptake buffer makes the desired final concentration (NaI 10 μM final, 1 μCi/well).
# The procedure is performed at 20±2° C. in a well ventilated hood. Culture medium of FRTL5 cells is removed by aspiration. Compound solutions are added to the 24-well plate in quadruplicate (450 μL/well) immediately followed by [125I]-NaI radioiodide uptake buffer (50 μL/well, 10 μM final, 1 μCi/well). The 24-well plate is left to stand for 60 min. Radioactive supernatants are removed by aspiration and the cell are washed twice with 500 μL of cold uptake buffer (HBSS/Hepes at 4° C.). Finally, the residual supernatant is removed by aspiration and 500 μL of lysis buffer (SDS 0.1%, triton 0.5%) is added to each well. The 24-well plate is gently agitated for 60-120 min. The radioactive cell lysates are collected and placed into scintillation vials. Scintillation cocktail (Ultima gold LLT, Perkin Elmer) is added to each vial (4 mL) and the radioactivity is measured (Wallac 1409). For IC50 determination, mean DPM values were fitted by non-linear regression (least square) to the four-parameter sigmoidal Hill equation.
# IC50 values are averaged from two to four independent experiments. A standard deviation of 2-fold was judged acceptable. NaClO4 and Compound 2 were tested as assay controls.
row,IC50,SMILES
1,5.3 nM,"O=[N+]([O-])c1cccc(C2OCCc3c2[nH]c2ccccc32)c1 (stereo not shown) [Compound 4, 1-(3-nitrophenyl)-1,3,4,9-tetrahydropyrano[3,4-b]indole]"
2,170 nM,"Fc1ccc(F)c(C2OCCc3c2[nH]c2ccccc32)c1 (stereo not shown) [Compound 7, 1-(2,5-difluorophenyl)-1,3,4,9-tetrahydropyrano[3,4-b]indole]"
3,0.41 nM,"c1cc2c(c(C3OCCc4c3[nH]c3ccccc43)c1)OCO2 (stereo not shown) [Compound 8, 1-(benzo[d][1,3]dioxol-4-yl)-1,3,4,9-tetrahydropyrano[3,4-b]indole]"
4,140 nM,"Clc1cccc(C2OCCc3c2[nH]c2ccccc32)c1 (stereo not shown) [Compound 9, 1-(3-chlorophenyl)-1,3,4,9-tetrahydropyrano[3,4-b]indole]"
5,57 nM,"COc1ccc(F)c(C2OCCc3c2[nH]c2ccccc32)c1 (stereo not shown) [Compound 10, 1-(2-fluoro-5-methoxyphenyl)-1,3,4,9-tetrahydropyrano[3,4-b]indole]"
6,170 nM,"Brc1cccc(C2OCCc3c2[nH]c2ccccc32)c1 (stereo not shown) [Compound 11, 1-(3-bromophenyl)-1,3,4,9-tetrahydropyrano[3,4-b]indole]"
7,200 nM,"Fc1ccc(C2OCCc3c2[nH]c2ccccc32)cc1Cl (stereo not shown) [Compound 12, 1-(3-chloro-4-fluorophenyl)-1,3,4,9-tetrahydropyrano[3,4-b]indole]"
8,1.1 nM,"Nc1cccc(C2OCCc3c2[nH]c2ccccc32)c1 (stereo not shown) [Compound 13, 1-(3-aminophenyl)-1,3,4,9-tetrahydropyrano[3,4-b]indole]"

row,SMILES,IC50
1,"O=[N+]([O-])c1cccc(C2NCCc3c2oc2ccccc32)c1 (stereo not shown) [Compound 5, 1-(3-nitrophenyl)-1,2,3,4-tetrahydro[1]benzofuro[2,3-c]pyridine]",200 nM
2,"O=[N+]([O-])c1cccc(C2SCCc3c2[nH]c2ccccc32)c1 (stereo not shown) [Compound 6, 1-(3-nitrophenyl)-1,3,4,9-tetrahydrathiopyrano[3,4-b]indole]",140 nM

# Target: T1, sodium iodide symporter (NIS)
# Assay: not given
# Settings: rat thyroid-derived cells (FRTL5); F. Waltz et al. 2010; read-out: IC50 competitive inhibition of iodide transport in FRTL5; cited from earlier work
row,SMILES,IC50
1,F[B-](F)(F)F [BF4^−],750 nM
2,[O-][Cl+3]([O-])([O-])O [ClO4^−],140 nM
3,O=[N+]([O-])O [NO3^−],250000 nM
4,F[P-](F)(F)(F)(F)F [PF6^−],9 nM

# Test system: not given
# Assay: not given
# Settings: concentration up to 200 μM; cited from earlier work
row,SMILES,cytotoxicity
1,Brc1cccc(C2NCCc3c2[nH]c2ccccc32)c1 (stereo not shown) [Compound 1],not cytotoxic
2,O=[N+]([O-])c1cccc(C2NCCc3c2[nH]c2ccccc32)c1 (stereo not shown) [Compound 2],not cytotoxic
